Data from patent US7429660B2, “ATM inhibitors” (Kudos Pharmaceuticals Limited, priority 2003, dated 2008).
pIC50: −log10 of the molar value.

The compounds below were run against T1, ATM protein immunoprecipitated from HeLa cell nuclear extract (Homo sapiens, UniProt Q13315) (assay: In vitro ATM inhibition assay (phosphorylation of GSTp53N66 on serine 15, chemiluminescent detection)). Settings: read-out: IC50 values (the concentration at which 50% of the enzyme activity is inhibited), ATM inhibition.
T1 construct: ATM protein was immunoprecipitated from HeLa cell nuclear extract; endogenous in cells; host or cells: HeLa cell nuclear extract (immunoprecipitated with rabbit polyclonal anti-ATM antiserum)
Type: biochemical
Protocol: In order to assess the inhibitory action of the compounds against ATM in vitro, the following assay was used to determine IC50 values. ATM protein was immunoprecipitated from HeLa cell nuclear extract using rabbit polyclonal anti-sera raised to the C-terminal ˜500 amino-acid residues of the human ATM protein. […] 10 μl of immunoprecipitated ATM in Buffer C (50 mM Hepes, pH 7.4, 6 mM MgCl2, 150 mM NaCl, 0.1 mM sodium orthovanadate, 4 mM MnCl2, 0.1 mM dithiothreitol, 10% glycerol) was added to 32.5 μl of buffer C containing 1 μg of the ATM substrate GSTp53N66 in a V-bottomed 96 well polypropylene plate. The GSTp53N66 substrate is the amino terminal 66 amino acid residues of human wild type p53 fused to glutathione S-transferase. […] Varying concentrations of inhibitor were then added. […] After 10 minutes of incubation at 37° C., the reactions were initiated by the addition of 5 μl of 500 μM Na-ATP. After 1 hour with shaking at 37° C., 150 μl of phosphate buffered saline (PBS) was added to the reaction and the plate centrifuged at 1500 rpm for 10 minutes. 5 μl of the reaction was then transferred to a 96 well opaque white plate containing 45 μl of PBS to allow the GSTp53N66 substrate to bind to the plate wells. The plate was covered and incubated at room temperature for 1 hour with shaking before discarding the contents. The plate wells were washed twice by the addition of PBS prior to the addition of 3% (w/v) bovine serum albumin (BSA) in PBS. The plate was incubated at room temperature for 1 hour with shaking before discarding the contents and washing twice with PBS. To the wells, 50 μl of a 1:10,000 dilution of primary phosphoserine-15 antibody (Cell Signaling Technology, #9284L) in 3% BSA/PBS was added to detect the phosphorylation event on the serine 15 residue of p53 elicited by the ATM kinase. […] The wells were then washed four times with PBS before the addition of chemiluminescence reagent (NEN Renaissance, NEL105). The plate was then shaken briefly, covered with a transparent plate seal and transferred to a TopCount NXT for chemiluminescent counting. Counts per second, following a one second counting time, were recorded for each reaction.
The enzyme activity for each compound is then calculated using the following equation:
[formula] Results In vitro ATM assays
Compounds were assayed for ATM inhibition activity using the method described above. […] These are determined over a range of different concentrations, normally from 100 μM down to 0.1 nM. Such IC50 values are used as comparative values to identify increased compound potencies.
Note: tested normally from 100 µM down to 0.1 nM.

T1 sequence (Q13315 whole entry): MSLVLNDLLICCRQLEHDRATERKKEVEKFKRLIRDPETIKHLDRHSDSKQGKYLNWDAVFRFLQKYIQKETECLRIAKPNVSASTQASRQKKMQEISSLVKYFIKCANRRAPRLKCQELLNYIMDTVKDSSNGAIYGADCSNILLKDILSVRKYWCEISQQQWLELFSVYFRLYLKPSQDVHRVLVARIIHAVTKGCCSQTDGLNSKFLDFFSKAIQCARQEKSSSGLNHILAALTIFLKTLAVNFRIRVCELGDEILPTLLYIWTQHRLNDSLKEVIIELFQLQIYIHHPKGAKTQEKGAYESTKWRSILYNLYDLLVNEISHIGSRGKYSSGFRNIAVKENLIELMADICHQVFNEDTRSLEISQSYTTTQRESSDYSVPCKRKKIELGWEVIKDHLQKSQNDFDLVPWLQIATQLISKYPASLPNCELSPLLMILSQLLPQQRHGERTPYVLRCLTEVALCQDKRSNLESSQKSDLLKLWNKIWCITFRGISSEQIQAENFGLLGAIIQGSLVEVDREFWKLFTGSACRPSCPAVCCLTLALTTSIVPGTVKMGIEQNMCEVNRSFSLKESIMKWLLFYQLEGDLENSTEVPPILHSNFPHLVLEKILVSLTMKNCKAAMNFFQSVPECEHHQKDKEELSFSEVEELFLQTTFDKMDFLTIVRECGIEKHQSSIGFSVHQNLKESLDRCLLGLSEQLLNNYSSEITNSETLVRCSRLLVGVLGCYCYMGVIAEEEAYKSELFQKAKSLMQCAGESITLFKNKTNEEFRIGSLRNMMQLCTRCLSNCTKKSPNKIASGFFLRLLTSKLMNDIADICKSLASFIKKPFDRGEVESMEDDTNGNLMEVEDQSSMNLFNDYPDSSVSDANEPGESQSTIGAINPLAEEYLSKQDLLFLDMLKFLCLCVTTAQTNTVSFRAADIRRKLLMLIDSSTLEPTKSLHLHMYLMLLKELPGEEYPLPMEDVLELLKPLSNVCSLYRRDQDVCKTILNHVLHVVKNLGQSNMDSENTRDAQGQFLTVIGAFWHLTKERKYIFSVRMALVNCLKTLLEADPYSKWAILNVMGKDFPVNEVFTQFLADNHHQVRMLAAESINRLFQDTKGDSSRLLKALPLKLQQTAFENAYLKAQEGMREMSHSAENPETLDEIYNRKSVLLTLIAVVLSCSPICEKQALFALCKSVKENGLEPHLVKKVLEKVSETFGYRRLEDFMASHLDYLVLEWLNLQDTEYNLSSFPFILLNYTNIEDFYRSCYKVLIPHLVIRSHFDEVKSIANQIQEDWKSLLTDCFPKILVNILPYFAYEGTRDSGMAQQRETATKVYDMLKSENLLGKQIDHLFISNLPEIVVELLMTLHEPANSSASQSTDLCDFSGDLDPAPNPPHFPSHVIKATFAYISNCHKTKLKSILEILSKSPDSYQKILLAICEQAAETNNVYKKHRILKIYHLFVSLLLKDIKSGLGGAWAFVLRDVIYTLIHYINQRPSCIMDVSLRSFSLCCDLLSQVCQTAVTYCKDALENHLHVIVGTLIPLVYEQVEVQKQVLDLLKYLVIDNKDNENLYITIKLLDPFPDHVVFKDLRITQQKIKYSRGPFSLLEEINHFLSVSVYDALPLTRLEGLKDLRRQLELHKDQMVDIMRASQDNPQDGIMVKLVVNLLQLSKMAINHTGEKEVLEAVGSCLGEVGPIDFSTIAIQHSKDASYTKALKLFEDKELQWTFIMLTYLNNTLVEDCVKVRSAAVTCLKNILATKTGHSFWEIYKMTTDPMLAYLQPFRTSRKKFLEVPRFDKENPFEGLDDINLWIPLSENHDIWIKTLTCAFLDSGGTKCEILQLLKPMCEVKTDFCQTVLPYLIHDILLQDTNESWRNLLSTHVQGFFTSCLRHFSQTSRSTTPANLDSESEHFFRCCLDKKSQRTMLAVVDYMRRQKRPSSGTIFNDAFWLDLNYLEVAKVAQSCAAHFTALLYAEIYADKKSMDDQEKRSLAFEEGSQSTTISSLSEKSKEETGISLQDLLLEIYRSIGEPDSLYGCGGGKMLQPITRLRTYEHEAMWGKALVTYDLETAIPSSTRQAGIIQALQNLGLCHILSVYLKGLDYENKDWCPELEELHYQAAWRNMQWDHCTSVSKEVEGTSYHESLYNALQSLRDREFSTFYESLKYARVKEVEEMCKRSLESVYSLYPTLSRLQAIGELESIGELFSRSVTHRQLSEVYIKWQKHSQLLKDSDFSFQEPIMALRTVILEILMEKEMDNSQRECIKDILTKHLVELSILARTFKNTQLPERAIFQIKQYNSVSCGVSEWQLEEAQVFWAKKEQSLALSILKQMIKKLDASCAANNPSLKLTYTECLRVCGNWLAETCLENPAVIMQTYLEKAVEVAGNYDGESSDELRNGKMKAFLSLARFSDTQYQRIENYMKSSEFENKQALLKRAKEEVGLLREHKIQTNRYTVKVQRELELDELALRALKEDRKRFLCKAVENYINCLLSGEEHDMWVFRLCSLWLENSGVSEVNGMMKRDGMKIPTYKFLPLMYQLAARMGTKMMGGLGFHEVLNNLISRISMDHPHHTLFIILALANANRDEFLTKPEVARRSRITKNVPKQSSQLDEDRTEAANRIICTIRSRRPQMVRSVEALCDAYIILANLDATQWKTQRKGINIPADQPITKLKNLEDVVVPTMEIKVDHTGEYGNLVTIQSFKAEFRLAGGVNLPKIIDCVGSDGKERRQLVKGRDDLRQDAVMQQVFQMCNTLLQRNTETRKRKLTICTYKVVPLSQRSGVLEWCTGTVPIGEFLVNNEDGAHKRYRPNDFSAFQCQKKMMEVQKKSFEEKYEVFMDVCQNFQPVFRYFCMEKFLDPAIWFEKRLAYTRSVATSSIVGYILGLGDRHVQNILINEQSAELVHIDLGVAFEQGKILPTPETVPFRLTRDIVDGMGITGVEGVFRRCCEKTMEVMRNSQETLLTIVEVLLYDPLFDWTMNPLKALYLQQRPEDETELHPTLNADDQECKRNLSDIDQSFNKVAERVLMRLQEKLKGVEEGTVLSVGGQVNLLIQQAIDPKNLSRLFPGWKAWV

pIC50, > 6.70:
COC(=O)C(=O)Nc1ccc2c(c1)Sc1cccc(-c3cc(=O)cc(N4CCOCC4)o3)c1S2 [Compound 36]
CSCCNC(=O)COc1ccc2c(c1)Cc1cccc(-c3cc(=O)cc(N4CCOCC4)o3)c1S2 [Compound 500]
CCCCNCCCN1c2ccccc2Sc2c(-c3cc(=O)cc(N4CCOCC4)o3)cccc21 [Compound 245]
O=c1cc(-c2cccc3c2Sc2ccccc2N3CCCNC2CCCC2)oc(N2CCOCC2)c1 [Compound 254]
CC(C)NC(=O)CN1CCN(CC(=O)Nc2ccc3c(c2)Cc2cccc(-c4cc(=O)cc(N5CCOCC5)o4)c2S3)CC1 [Compound 346]
CCN1CCN(C(=O)COc2ccc3c(c2)Sc2cccc(-c4cc(=O)cc(N5CCOCC5)o4)c2S3)CC1 [Compound 438]
O=C(CN1CCN(CCOCCO)CC1)Nc1ccc2c(c1)Sc1cccc(-c3cc(=O)cc(N4CCOCC4)o3)c1S2 [Compound 79]
CCN1CCN(CC(=O)Nc2ccc3c(c2)Cc2cccc(-c4cc(=O)cc(N5CCOCC5)o4)c2S3)CC1 [Compound 342]
CCN1CCN(C(=O)COc2ccc3c(c2)Cc2cccc(-c4cc(=O)cc(N5CCOCC5)o4)c2S3)CC1 [Compound 524]
CN1CCN(CCCNCCCN2c3ccccc3Sc3c(-c4cc(=O)cc(N5CCOCC5)o4)cccc32)CC1 [Compound 270]
CCN1CCN(S(=O)(=O)c2ccc3c(c2)Cc2cccc(-c4cc(=O)cc(N5CCOCC5)o4)c2S3)CC1 [Compound 482]
O=C(COc1ccc2c(c1)Sc1cccc(-c3cc(=O)cc(N4CCOCC4)o3)c1S2)N1CCSCC1 [Compound 417]
COc1cc(C(=O)Nc2ccc3c(c2)Sc2cccc(-c4cc(=O)cc(N5CCOCC5)o4)c2S3)cc(OC)c1OC [Compound 40]
O=C(Nc1ccc2c(c1)Sc1cccc(-c3cc(=O)cc(N4CCOCC4)o3)c1S2)c1ccncc1 [Compound 30]
CCN1CCN(CCC(=O)Nc2ccc3c(c2)Cc2cccc(-c4cc(=O)cc(N5CCOCC5)o4)c2S3)CC1 [Compound 352]
COCCOCC(=O)Nc1ccc2c(c1)Sc1cccc(-c3cc(=O)cc(N4CCOCC4)o3)c1S2 [Compound 48]
COc1ccc(CNCC(=O)Nc2ccc3c(c2)Sc2cccc(-c4cc(=O)cc(N5CCOCC5)o4)c2S3)cc1 [Compound 64]
O=C(COc1ccc2c(c1)Sc1cccc(-c3cc(=O)cc(N4CCOCC4)o3)c1S2)N1CCN(CCO)CC1 [Compound 436]
CC(C)N1CCN(C(=O)COc2ccc3c(c2)Sc2cccc(-c4cc(=O)cc(N5CCOCC5)o4)c2S3)CC1 [Compound 437]
O=c1cc(-c2cccc3c2Sc2ccc(S(=O)(=O)N4CCCC(CO)C4)cc2C3)oc(N2CCOCC2)c1 (stereo not shown) [Compound 471]
O=C(Nc1ccc2c(c1)Sc1cccc(-c3cc(=O)cc(N4CCOCC4)o3)c1S2)C1CC1 [Compound 24]
O=C(CN1CCCCC1)Nc1ccc2c(c1)Sc1cccc(-c3cc(=O)cc(N4CCOCC4)o3)c1S2 [Compound 52]
O=c1cc(-c2cccc3c2Sc2ccccc2N3CCCNCCc2cnc[nH]2)oc(N2CCOCC2)c1 [Compound 271]
O=C(COc1ccc2c(c1)Cc1cccc(-c3cc(=O)cc(N4CCOCC4)o3)c1S2)NCC(F)(F)F [Compound 496]
O=C(CCN1CCN(c2ccccn2)CC1)Nc1ccc2c(c1)Cc1cccc(-c3cc(=O)cc(N4CCOCC4)o3)c1S2 [Compound 353]
O=C(Nc1ccc2c(c1)Sc1cccc(-c3cc(=O)cc(N4CCOCC4)o3)c1S2)c1ccc2c(c1)OCO2 [Compound 25]
O=C(COc1ccc2c(c1)Cc1cccc(-c3cc(=O)cc(N4CCOCC4)o3)c1S2)N1CCCCCC1 [Compound 532]
O=c1cc(-c2cccc3c2Sc2ccccc2N3CCCN2CCCCCC2)oc(N2CCOCC2)c1 [Compound 260]
CC(C)NC(=O)CN1CCN(CC(=O)Nc2ccc3c(c2)Sc2cccc(-c4cc(=O)cc(N5CCOCC5)o4)c2S3)CC1 [Compound 85]
CCOC(=O)C1CCCN(CCCN2c3ccccc3Sc3c(-c4cc(=O)cc(N5CCOCC5)o4)cccc32)C1 (stereo not shown) [Compound 315]
O=C(CN1CCN(c2ccc(F)cc2)CC1)Nc1ccc2c(c1)Cc1cccc(-c3cc(=O)cc(N4CCOCC4)o3)c1S2 [Compound 344]
CCCCNS(=O)(=O)c1ccc2c(c1)Cc1cccc(-c3cc(=O)cc(N4CCOCC4)o3)c1S2 [Compound 457]
O=C(CN1CCOCC1)Nc1ccc2c(c1)Sc1cccc(-c3cc(=O)cc(N4CCOCC4)o3)c1S2 [Compound 51]
O=C(CN1CCCNCC1)Nc1ccc2c(c1)Sc1cccc(-c3cc(=O)cc(N4CCOCC4)o3)c1S2 [Compound 61]
O=C(c1ccco1)N1CCN(CCOc2ccc3c(c2)Sc2cccc(-c4cc(=O)cc(N5CCOCC5)o4)c2S3)CC1 [Compound 395]
O=c1cc(-c2cccc3c2Sc2ccccc2N3CCCN2CCN(CCO)CC2)oc(N2CCOCC2)c1 [Compound 300]
O=c1cc(-c2cccc3c2Sc2ccccc2N3CCCNCCN2CCCC2)oc(N2CCOCC2)c1 [Compound 264]
O=C(CCN1CCCCCC1)Nc1ccc2c(c1)Sc1cccc(-c3cc(=O)cc(N4CCOCC4)o3)c1S2 [Compound 101]
CC1(C)OCC(CNCCCN2c3ccccc3Sc3c(-c4cc(=O)cc(N5CCOCC5)o4)cccc32)O1 (stereo not shown) [Compound 321]
O=c1cc(-c2cccc3c2Sc2ccccc2N3CCCN(CCO)CCO)oc(N2CCOCC2)c1 [Compound 327]
CCN(CC(=O)Nc1ccc2c(c1)Sc1cccc(-c3cc(=O)cc(N4CCOCC4)o3)c1S2)Cc1ccncc1 [Compound 72]
O=C(COc1ccc2c(c1)Sc1cccc(-c3cc(=O)cc(N4CCOCC4)o3)c1S2)N1CCN(c2ccccn2)CC1 [Compound 426]
CN1CCN(CC(=O)Nc2ccc3c(c2)Sc2cccc(-c4cc(=O)cc(N5CCOCC5)o4)c2S3)CC1 [Compound 54]
CC(=O)Nc1ccc2c(c1)Sc1cccc(-c3cc(=O)cc(N4CCOCC4)o3)c1S2 [Compound 22]
CC(C)(C)OC(=O)N1CCN(C(=O)c2ccc3c(c2)Sc2cccc(-c4cc(=O)cc(N5CCOCC5)o4)c2S3)CC1 [Compound 16]
CC(C)(C)OC(=O)N1CCC(NCCCN2c3ccccc3Sc3c(-c4cc(=O)cc(N5CCOCC5)o4)cccc32)CC1 [Compound 311]
O=c1cc(-c2cccc3c2Sc2ccccc2N3CCCNCCN2CCN(Cc3ccccc3)CC2)oc(N2CCOCC2)c1 [Compound 274]
O=C(CCN1CCN(c2ccc(F)cc2)CC1)Nc1ccc2c(c1)Sc1cccc(-c3cc(=O)cc(N4CCOCC4)o3)c1S2 [Compound 121]
CC(C)(C)OC(=O)N1CCN(CCCN2c3ccccc3Sc3c(-c4cc(=O)cc(N5CCOCC5)o4)cccc32)CC1 [Compound 298]
CN(C)CCN1CCN(CCC(=O)Nc2ccc3c(c2)Sc2cccc(-c4cc(=O)cc(N5CCOCC5)o4)c2S3)CC1 [Compound 124]
NC(=O)CNCCC(=O)Nc1ccc2c(c1)Sc1cccc(-c3cc(=O)cc(N4CCOCC4)o3)c1S2 [Compound 125]
CN1CCN(CCCN2c3ccccc3Sc3c(-c4cc(=O)cc(N5CCOCC5)o4)cccc32)CC1 [Compound 288]
CC(=O)N1CCN(CC(=O)Nc2ccc3c(c2)Sc2cccc(-c4cc(=O)cc(N5CCOCC5)o4)c2S3)CC1 [Compound 77]
NC(=O)C1CCN(C(=O)COc2ccc3c(c2)Cc2cccc(-c4cc(=O)cc(N5CCOCC5)o4)c2S3)CC1 [Compound 509]
CN(C)CCN1CCN(CCCN2c3ccccc3Sc3c(-c4cc(=O)cc(N5CCOCC5)o4)cccc32)CC1 [Compound 304]
O=c1cc(-c2cccc3c2Sc2ccccc2N3CCCNN2CCCCCC2)oc(N2CCOCC2)c1 [Compound 261]
CN1CCCN(CCC(=O)Nc2ccc3c(c2)Sc2cccc(-c4cc(=O)cc(N5CCOCC5)o4)c2S3)CC1 [Compound 99]
CCNCCCOc1ccc(-c2cc(=O)cc(N3CCOCC3)o2)c2c1Sc1ccccc1S2 [Compound 172]
